Source: article PMC8819291, “Adaptively evolved human oral actinomyces‐sourced defensins show therapeutic potential” (EMBO Molecular Medicine, 2021)
Where a SMILES comes first, the peptide text is derived from it.

What was measured:
A549 cells = test: Peptide-induced IL-8 release (ELISA); format: cell-based, human; conditions: 24 h
Description: (§1) A549 and HL‐60 cells were purchased from the Cell Resource Center of the Chinese Academy of Medical Sciences (Beijing, China). They were tested for mycoplasma contamination with the Mycoplasma Detection Kit (Solarbio, China) and only negative cultures were used in our experiments. The cells were cultured in complete Dulbecco’s Modified Eagle Medium (DMEM) supplemented with 10% fetal bovine serum (FBS), penicillin (100 units/ml), and streptomycin ([…]) at 37°C in 5% CO2. The culture medium was changed every 2 days. Cells were passaged every 4–5 days with 0.25% trypsin (Gibco, USA). For enzyme‐linked immunosorbent assay (ELISA) (Hara et al, [2008]), A549 or HL‐60 cells were seeded in six‐well plates at a density of 1 × 10^5 cells/well and were incubated at 37°C in 5% CO2 overnight. Medium was aspirated and replaced with fresh complete DMEM supplemented with 10% FBS or serum‐free medium, both containing different concentrations of polypeptides for 24 h. Then, the supernatants were harvested for quantification of the IL‐8 amount in A549 by the Human CXCL8/IL‐8 Quantikine ELISA Kit (R&D Systems Inc., Minneapolis, MN, USA) and the MCP‐1 amount in HL‐60 by the Human MCP‐1 ELISA Kit (Boster Biological Technology Co., Ltd, Wuhan, China) as per the manufactures’ instructions.

HL‐60 = test: Cytotoxicity assay (CCK-8); format: cell-based, human; conditions: 72 h
Description: Cells were cultured at 37°C in 5% CO2: 95% air incubator in Minimum Essential Medium (MEM) supplemented with 10% (v/v) fetal bovine serum (FBS). Cells were seeded at a density of 7 × 10^3 cells per well in 96‐well plates and incubated for 24 h. Media were then replaced with 200 μl of media containing various concentrations of peptides. The cells were incubated for 72 h and cytotoxicity was assessed with CCK‐8 Kits (Dojindo Molecular Technologies, Tokyo, Japan). Absorbance was detected at 450 nm with the TECAN Infinite M200 microplate reader (Tecan, Durham, USA).

HL‐60 cells = test: Peptide-induced MCP-1 release (ELISA); format: cell-based, human; conditions: 24 h
Description: as §1

SP D39 = test: Mouse lung infection model
Description: To this end, ICR female mice (30 g each mouse; 9–10 weeks of age) were anesthetized with 1.25% 2,2,2‐Tribromoethanol (Avertin) (Macklin, Shanghai, China) and hung by their front teeth on a steel wire. Then, they were inoculated intranasally with 10–20 µl bacterial suspension of SP D39 of fresh overnight culture (1.5 × 10^6 CFU per mouse) and then were removed from the wire to their cages. A control group of untreated mice was included. […] Mice were treated with penicillin as a positive control. At 48 h post‐infection, the mice were sacrificed and lungs removed and homogenized in 0.9% saline. Colony counts from lung homogenates were determined and the total number of colonies/lungs per mouse was calculated. Schematic representation is provided in Appendix Fig S16B.

[1] = system: BM cells (Bacillus megaterium); test: Scanning electron microscope observation of cell deformation; format: cell-based; conditions: 10 × C L, 37°C, 90 min
Description: After centrifugation, bacterial pellets were fixed with 2.5% glutaraldehyde for 1 h, followed by washing three times with PBS buffer (pH 7.3). Dehydration was carried out with a series of graded ethanol solutions. Cells were then dried by BAL‐TEC CPD‐030 critical point dryer (Bal‐Tec AG, Balzers, Liechtenstein) before being mounted on carbon tape and sputtered with a gold coating (BAL‐TEC SCD005). Images were visualized in FEI QUANTA 450.

[2] = Bioaffinity ESI-MS with UMP; format: binding, Staphylococcus aureus; conditions: 25 mM ammonium acetate (pH5.2)
Description: All components for interactions were dissolved in 25 mM ammonium acetate (pH5.2). Electrospray spectra were recorded with Waters SynaptG2‐Si mass spectrometer (Waters, Manchester, UK) and measurements were performed with positive ESI in resolution mode. Ions were scanned in a mass range of 500–2,000 m/z with the following conditions: the capillary voltage at 1,500 V; the cone voltage at 40 V; the source block temperature at 30°C. Spectra were recorded and processed by the software Masslynx4.1 (Waters, Manchester, UK).

[3] = Circular dichroism spectroscopy with UMP; format: binding; conditions: 50 mM NH4OAc, room temperature
Description: The spectra were measured at room temperature from 300 to 200 nm by using a quartz cell of 1.0 mm thickness. Data were collected at 1‐nm intervals with a scan rate of 2 nm/s.

MRSA P1374 = test: Cytoplasmic accumulation of UMP; format: cell-based, Staphylococcus aureus; conditions: 20 × C L, 30 min; RP-HPLC, UV 260 nm
Description: To analyze the cytoplasmic nucleotide pool, we carried out the cytoplasmic UMP accumulation experiment according to the literature (Brötz et al, [1997]) with some modifications. MRSA P1374 cells were grown in 40‐ml broth medium at 37°C to an OD600 of 0.5. The culture was supplemented with 130 μg/ml chloramphenicol. […] After 30 min of incubation, UMP was extracted from the harvested cells by stirring them into boiling water. The suspension was then centrifuged (43,000 g, 60 min) at 4°C and the supernatant was lyophilized and dissolved in 400 μl of 50 mM ammonium acetate (pH 5.2) and adjusted to pH 2.0 with acetic acid. After acidification, the supernatant was fractionated by RP‐HPLC on Hypersil ODS (250 × 4.6 mm; Thermo Scientific) and UMP was eluted from the column with a linear gradient from 0 to 40% methanol in 50 mM NH4Ac (pH 5.2) within 40 min with a flow rate of 1 ml/min. UV absorbance was monitored at 260 nm. UMP was identified by ultraperformance liquid chromatography–high resolution mass spectrometry (UPLC‐HRMS) and MALDI‐TOF. Both methods yielded consistent results.

[4] = system: fresh erythrocytes from the female ICR mice; test: Hemolysis assay; format: cell-based, Mus musculus; conditions: 25 μM
Description: Hemolytic activity of peptides against fresh erythrocytes from the female ICR mice (Mus musculus) (25 g, 6 weeks of age) was assayed according to the standard method (Zhu et al, [2012]). Peptides were diluted with 0.9% NaCl to the indicated concentration. The percentage of hemolysis is determined as (A pep–A blank)/(A tot–A blank) × 100, in which “A” represents absorbance measured at 570 nm. A blank and A pep were evaluated in the absence or presence of peptides. One hundred percent hemolysis (A tot) was obtained in the presence of 1% Triton X‐100.

[5] = system: Streptococcus salivarius ATCC 1.2498; test: Inhibition-zone-based synergy assay; format: cell-based; conditions: 0.05 nmol/well, without AMSIN
[6] = system: Streptococcus sanguinis ATCC 1.2497; test: Inhibition-zone-based synergy assay; format: cell-based; conditions: 0.05 nmol/well, without AMSIN
[7] = FBS-containing medium, 25 μg/mL, replicate 1
[8] = FBS-containing medium, 25 μg/mL, replicate 2
[9] = FBS-containing medium, 25 μg/mL, replicate 3
[10] = FBS-containing medium, 50 μg/mL, replicate 1
[11] = FBS-containing medium, 50 μg/mL, replicate 2
[12] = FBS-containing medium, 50 μg/mL, replicate 3
[13] = FBS-containing medium, 100 μg/mL, replicate 1
[14] = FBS-containing medium, 100 μg/mL, replicate 2
[15] = FBS-containing medium, 100 μg/mL, replicate 3
[16] = Serum-Free medium, 25 μg/mL, replicate 1
[17] = Serum-Free medium, 25 μg/mL, replicate 2
[18] = Serum-Free medium, 25 μg/mL, replicate 3
[19] = Serum-Free medium, 50 μg/mL, replicate 1
[20] = Serum-Free medium, 50 μg/mL, replicate 2
[21] = Serum-Free medium, 50 μg/mL, replicate 3
[22] = Serum-Free medium, 100 μg/mL, replicate 1
[23] = Serum-Free medium, 100 μg/mL, replicate 2
[24] = Serum-Free medium, 100 μg/mL, replicate 3

## LL-37: the human AMP with immunomodulatory properties, chemically synthesized, positive control [reference compound]
A549 cells; [7]
  IL-8: 172 pg/mL
A549 cells; [8]
  IL-8: 166 pg/mL
A549 cells; [9]
  IL-8: 172 pg/mL
A549 cells; [10]
  IL-8: 156 pg/mL
A549 cells; [11]
  IL-8: 129 pg/mL
A549 cells; [12]
  IL-8: 155 pg/mL
A549 cells; [13]
  IL-8: 173 pg/mL
A549 cells; [14]
  IL-8: 195 pg/mL
A549 cells; [15]
  IL-8: 192 pg/mL
A549 cells; [16]
  IL-8: 57 pg/mL
A549 cells; [17]
  IL-8: 41 pg/mL
A549 cells; [18]
  IL-8: 47 pg/mL
A549 cells; [19]
  IL-8: 66 pg/mL
A549 cells; [20]
  IL-8: 57 pg/mL
A549 cells; [21]
  IL-8: 78 pg/mL
A549 cells; [22]
  IL-8: 133 pg/mL
A549 cells; [23]
  IL-8: 122 pg/mL
A549 cells; [24]
  IL-8: 116 pg/mL
HL‐60; 25 μg/mL, replicate 1
  Cellular variability of HL-60 (%): 95%
HL‐60; 25 μg/mL, replicate 2
  Cellular variability of HL-60 (%): 96%
HL‐60; 25 μg/mL, replicate 3
  Cellular variability of HL-60 (%): 103%
HL‐60; 50 μg/mL, replicate 1
  Cellular variability of HL-60 (%): 57%
HL‐60; 50 μg/mL, replicate 2
  Cellular variability of HL-60 (%): 56%
HL‐60; 50 μg/mL, replicate 3
  Cellular variability of HL-60 (%): 64%
HL‐60; 100 μg/mL, replicate 1
  Cellular variability of HL-60 (%): 25%
HL‐60; 100 μg/mL, replicate 2
  Cellular variability of HL-60 (%): 25%
HL‐60; 100 μg/mL, replicate 3
  Cellular variability of HL-60 (%): 26%
HL‐60 cells; [7]
  MCP-1: 486 pg/mL
HL‐60 cells; [8]
  MCP-1: 414 pg/mL
HL‐60 cells; [9]
  MCP-1: 465 pg/mL
HL‐60 cells; [10]
  MCP-1: 538 pg/mL
HL‐60 cells; [11]
  MCP-1: 514 pg/mL
HL‐60 cells; [12]
  MCP-1: 517 pg/mL
HL‐60 cells; [13]
  MCP-1: 545 pg/mL
HL‐60 cells; [14]
  MCP-1: 571 pg/mL
HL‐60 cells; [15]
  MCP-1: 524 pg/mL
HL‐60 cells; [16]
  MCP-1: 431 pg/mL
HL‐60 cells; [17]
  MCP-1: 519 pg/mL
HL‐60 cells; [18]
  MCP-1: 410 pg/mL
HL‐60 cells; [19]
  MCP-1: 583 pg/mL
HL‐60 cells; [20]
  MCP-1: 543 pg/mL
HL‐60 cells; [21]
  MCP-1: 562 pg/mL
HL‐60 cells; [22]
  MCP-1: 459 pg/mL
HL‐60 cells; [23]
  MCP-1: 565 pg/mL
HL‐60 cells; [24]
  MCP-1: 438 pg/mL

## penicillin [reference compound]
SP D39; 8.35 mg/kg i.m. 24 h after intranasal SP D39, lungs at 48 h post‐infection, animal 1
  Log10 (CFU per lung): 3.6 Log10 (CFU per lung)
SP D39; 8.35 mg/kg i.m., animal 2
  Log10 (CFU per lung): 4.3 Log10 (CFU per lung)
SP D39; 8.35 mg/kg i.m., animal 3
  Log10 (CFU per lung): 3.23 Log10 (CFU per lung)
SP D39; 8.35 mg/kg i.m., animal 4
  Log10 (CFU per lung): 3.28 Log10 (CFU per lung)
SP D39; 8.35 mg/kg i.m., animal 5
  Log10 (CFU per lung): 3.3 Log10 (CFU per lung)
SP D39; 16.7 mg/kg i.m., animal 1
  Log10 (CFU per lung): 1.3 Log10 (CFU per lung)
SP D39; 16.7 mg/kg i.m., animal 2
  Log10 (CFU per lung): 1.48 Log10 (CFU per lung)
SP D39; 16.7 mg/kg i.m., animal 3
  Log10 (CFU per lung): 1.3 Log10 (CFU per lung)
SP D39; 16.7 mg/kg i.m., animal 4
  Log10 (CFU per lung): 4.2 Log10 (CFU per lung)
SP D39; 16.7 mg/kg i.m., animal 5
  Log10 (CFU per lung): 4.68 Log10 (CFU per lung)
SP D39; 30 mg/kg i.m., animal 1
  Log10 (CFU per lung): 3 Log10 (CFU per lung)
SP D39; 30 mg/kg i.m., animal 2
  Log10 (CFU per lung): 1 Log10 (CFU per lung)
SP D39; 30 mg/kg i.m., animal 3
  Log10 (CFU per lung): 2.63 Log10 (CFU per lung)
SP D39; 30 mg/kg i.m., animal 4
  Log10 (CFU per lung): 1 Log10 (CFU per lung)
SP D39; 30 mg/kg i.m., animal 5
  Log10 (CFU per lung): 1 Log10 (CFU per lung)

## CN[C@H](CC(C)C)C(=O)N[C@H]1C(=O)N[C@@H](CC(N)=O)C(=O)N[C@H]2C(=O)N[C@H]3C(=O)N[C@H](C(=O)N[C@H](C(=O)O)c4cc(O)cc(O)c4-c4cc3ccc4O)[C@H](O)c3ccc(c(Cl)c3)Oc3cc2cc(c3O[C@@H]2O[C@H](CO)[C@@H](O)[C@H](O)[C@H]2O[C@H]2C[C@](C)(N)[C@H](O)[C@H](C)O2)Oc2ccc(cc2Cl)[C@H]1O [vancomycin, reference compound]
[1]
  Cell shape by scanning electron microscopy: deformation of the cell shape
[2]
  Non-covalent complex with UMP by ESI-MS: complex formation
[3]
  Complex with UMP by CD absorption signatures: a complex was formed
MRSA P1374
  Cytoplasmic accumulation of UMP: accumulated

## CC[C@H](C)[C@H](NC(=O)[C@H](CCCCN)NC(=O)[C@@H](NC(=O)[C@H](C)NC(=O)[C@H](CC(C)C)NC(=O)[C@H](CCCCN)NC(=O)[C@H](Cc1ccccc1)NC(=O)[C@H](CC(C)C)NC(=O)[C@H](Cc1cnc[nH]1)NC(=O)CNC(=O)[C@H](Cc1ccccc1)NC(=O)[C@@H](N)Cc1ccccc1)[C@@H](C)O)C(=O)N[C@H](C(=O)N1CCC[C@H]1C(=O)N[C@@H](CO)C(=O)N[C@@H](CC(C)C)C(=O)N[C@@H](Cc1ccccc1)C(=O)N[C@@H](CCC(N)=O)C(=O)O)[C@@H](C)CC [Meucin-18, reference compound] (H-FFGHLFKLATKIIPSLFQ-OH)
[4]; technical replicate 1
  Hemolysis (%): 91.54%
[4]; technical replicate 2
  Hemolysis (%): 95.84%
[4]; technical replicate 3
  Hemolysis (%): 92.43%

## drosomycin: a specific antifungal defensin (DCLSGRYKGPCAVWDNETCRRVCKEEGRSSGHCSPSLKCWCEGC; UniProt P41964 27-70, looked up)
[2]
  Non-covalent complex with UMP by ESI-MS: not

B1: hLZc: lysozyme C isolated from human saliva (protein)
chain: KVFERCELARTLKRLGMDGYRGISLANWMCLAKWESGYNTRATNYNAGDRSTDYGIFQINSRYWCNDGKTPGAVNACHLSCSALLQDNIADAVACAKRVVRDPQGIRAWVAWRNRCQNRDVRQYVQGCGV
[5]
  Inhibition zone of the factor alone: no visible inhibition zones
[6]
  Inhibition zone of the factor alone: no visible inhibition zones
